From patent publication US20230381142A1, “ANTILEISHMANIAL COMPOUNDS, COMPOSITIONS AND USE THEREOF” (TRUSTEES OF BOSTON UNIVERSITY, priority 2022, published 2023)
Like-named read-outs stand apart in the source and are kept apart here.

Experiments:
[1] = test system: L. donovani intracellular amastigotes in B10R cells; test: UCSD L. donovani infection assay (Assay Conditions D); type: cell-based; conditions: B10R cells; for L. donovani amastigotes EC75 (B10R cells): footnote d
Experimental: (§1) Assay Conditions D: B10R cells (CVCL_0155) were seeded at 300 cells/well, and L. donovani WT promastigotes in stationary phase (7th day after passage) were added at 6,000 parasites/well (ratio of 20 parasites/cell). Both cells and parasites were seeded in DMEM High-Glucose medium (Gibco, cat. no. 11995065) containing 5% Fetal Bovine Serum (Sigma-Aldrich, cat. no. F2442) and 1% Penicillin-Streptomycin (Gibco, cat. no. 15140122). Cells and parasites were incubated in the presence of the compounds for 72 h at 37° C. and 5% C02. Plates were then fixed with 4% formaldehyde solution for at least 1 h, then washed with 1×PBS and stained with 5 μg/mL DAPI. Plates were read using an ImageXpress microscope (Molecular Devices) and analyzed by MetaXpress software (Molecular Devices) using a custom module optimized for this assay. […] Compounds were tested in a 10-point 2-fold serial dilution in 3 technical replicates, and 2 biological replicates. After 72 h, plates were fixed and stained with DAPI as described above. Images were acquired on an ImageXpress microscope, and analyzed using the MetaXpress custom module.
as §1, with “Compounds were obtained as 0.2 μmoles of dried film for primary single point screening. Each compound was diluted in DMSO to 10 μM final testing concentration. These compounds were tested in 2 biological replicates. The compounds were pre-spotted onto 384-well assay plates in single concentration.” for “Assay Conditions D:”, “CO2.” for “C02.”, “module. The DRCs were plotted, half-effective concentration (EC50) and half-cytotoxic concentration (CC50) were calculated using GraphPad Prism Software, version 6.05 (GraphPad Software, San Diego, CA).” for “module.”

[2] = GSK inMac assay, host cell toxicity readout (LD MAC); type: cell-based, human; conditions: human
Experimental: (§2) The intramacrophage Leishmania donovani activity assay (LD AMMAC) at GlaxoSmithKline was performed as described.
(§3) Given the literature precedents described above and the apparent narrow tolerance for R^3 substitutions observed in the primary screen compounds, a thorough and methodical assessment was undertaken of tolerated groups at the three points of diversity (R^1/R^2/R^3) for the core. At this stage of the project, all analogues were assessed using a battery of assays performed in-house at GlaxoSmithKline. For antileishmanial activity, GSK's inMac assay was utilized. This assay provides two readouts of compound potency: average number of intracellular amastigotes per infected cell (AMMAC) EC50, percentage of infected cells per well (INFCELL) EC50, as well as a toxicity output derived from the number of host cells (MAC EC50). In addition, compounds were assessed for toxicity against HepG2 cells (HEPG2 EC50). Here, AMMAC EC50 values were focused on for relative potency assessments. […] It should be noted that for all compounds assessed in this project, the measured toxicity against THP-1 macrophages either equaled or exceeded that of HepG2 hepatocytes, therefore the MAC SI is used here as the more conservative estimate of therapeutic index.

[3] = test system: L. donovani intracellular amastigotes infecting THP-1 macrophages; test: GSK intramacrophage L. donovani assay (LD AMMAC, inMac; Assay Conditions C); type: cell-based; conditions: Leishmania donovani; THP-1 cells; values marked c; read-out: L. donovani amastigotes EC50 (THP-1 cells)
Experimental: Assay Conditions C: The intramacrophage Leishmania donovani activity assay was performed as described in Antimicrob Agents Chemother (2013) 57(7):2913-22.
as §2, §3

[4] = footnote c, read-out: THP-1 Host Cell CC50

SMILES	L. donovani amastigotes EC75 (μM, B10R cells) [1] [µM]	CC50 [2, 4] [µM]	EC50 [3] [µM]	other results
CCn1cc(N2C(=O)c3[nH]nc(CC(C)C)c3C2c2ccc(F)cc2Cl)cn1 (centres unmarked) [BUCMD00665]	>10	–	–	–
CCn1cc(N2C(=O)c3[nH]nc(CC(C)C)c3C2c2ccc(Cl)cc2F)cn1 (centres unmarked) [BUCMD00666]	>10	–	–	–
CCn1cc(N2C(=O)c3[nH]nc(CC(C)C)c3C2c2ccccc2C)cn1 (centres unmarked) [BUCMD00667]	>10	–	–	–
CCn1cc(N2C(=O)c3[nH]nc(CC(C)C)c3C2c2ccccc2Cl)cn1 (centres unmarked) [BUCMD00668]	5.8	–	–	–
CCn1cc(N2C(=O)c3[nH]nc(CC(C)C)c3C2c2ccc(F)cc2Br)cn1 (centres unmarked) [BUCMD00669]	–	–	–	L. donovani amastigotes EC75 (B10R cells) [1]: 0.7 µM
CCn1cc(N2C(=O)c3[nH]nc(CC(C)C)c3C2c2ccc(F)cc2F)cn1 (centres unmarked) [BUCMD00670]	>10	–	–	–
CCn1cc(N2C(=O)c3[nH]nc(CC(C)C)c3C2c2sccc2C)cn1 (centres unmarked) [BUCMD00672]	6.9	–	–	–
CC(C)Cc1n[nH]c2c1C(c1ccc(F)cc1Cl)N(c1cnn(C(C)C)c1)C2=O (centres unmarked) [BUCMD00674]	10.0	–	–	–
CC(C)Cc1n[nH]c2c1C(c1ccc(Cl)cc1F)N(c1cnn(C(C)C)c1)C2=O (centres unmarked) [BUCMD00675]	>10	–	–	–
CC(C)Cc1n[nH]c2c1C(c1ccccc1Cl)N(c1cnn(C(C)C)c1)C2=O (centres unmarked) [BUCMD00676]	>10	–	–	–
Cc1ccccc1C1c2c(CC(C)C)n[nH]c2C(=O)N1c1cnn(C(C)C)c1 (centres unmarked) [BUCMD00677]	>10	–	–	–
CC(C)Cc1n[nH]c2c1C(c1ccc(F)cc1F)N(c1cnn(C(C)C)c1)C2=O (centres unmarked) [BUCMD00678]	>10	–	–	–
CC(C)Cc1n[nH]c2c1C(c1ccccc1C(F)(F)F)N(c1cnn(C(C)C)c1)C2=O (centres unmarked) [BUCMD00679]	10.4	–	–	–
Cc1ccsc1C1c2c(CC(C)C)n[nH]c2C(=O)N1c1cnn(C(C)C)c1 (centres unmarked) [BUCMD00680]	>10	–	–	–
Cc1cc(F)ccc1C1c2c(CC(C)C)n[nH]c2C(=O)N1c1cncc(F)c1 (centres unmarked) [BUCMD00693]	>10	–	–	–
CC(C)Cc1n[nH]c2c1C(c1ccc(Cl)cc1F)N(c1cncc(F)c1)C2=O (centres unmarked) [BUCMD00695]	–	–	–	L. donovani amastigotes EC75 (B10R cells) [1]: 0.5 µM
CC(C)Cc1n[nH]c2c1C(c1ccccc1Cl)N(c1cncc(F)c1)C2=O (centres unmarked) [BUCMD00696]	>10	–	–	–
Cc1ccccc1C1c2c(CC(C)C)n[nH]c2C(=O)N1c1cncc(F)c1 (centres unmarked) [BUCMD00697]	2.6	–	–	–
CC(C)Cc1n[nH]c2c1C(c1ccc(F)cc1F)N(c1cncc(F)c1)C2=O (centres unmarked) [BUCMD00698]	2.3	–	–	–
Cc1ccsc1C1c2c(CC(C)C)n[nH]c2C(=O)N1c1cncc(F)c1 (centres unmarked) [BUCMD00702]	7.3	–	–	–
CC(C)Cc1n[nH]c2c1C(c1ccccc1F)N(c1ccc(C(=O)N3CCCC3)cc1)C2=O (centres unmarked) [BUCMD00715]	>10	–	–	–
CC(C)Cc1n[nH]c2c1C(c1ccc(F)c(F)c1)N(c1ccc(C(=O)N3CCCC3)cc1)C2=O (centres unmarked) [BUCMD00716]	>10	–	–	–
CC(C)Cc1n[nH]c2c1C(c1ccccc1Cl)N(c1ccc(N3CCN(C)CC3)nc1)C2=O (centres unmarked) [BUCMD00720]	5.1	–	–	–
Cc1ccccc1C1c2c(CC(C)C)n[nH]c2C(=O)N1c1ccc(N2CCN(C)CC2)nc1 (centres unmarked) [BUCMD00721]	5.0	–	–	–
Cc1cc(F)ccc1C1c2c(CC(C)C)n[nH]c2C(=O)N1c1ccc(C(=O)N2CCCC2)cc1 (centres unmarked) [BUCMD00726]	>10	–	–	–

SMILES	L. donovani amastigotes EC75 (μM, B10R cells) [1] [µM]	CC50 [2, 4] [µM]	EC50 [3] [µM]	other results
CC(C)Cc1n[nH]c2c1C(c1ccccc1Cl)N(c1ccc(C(=O)N3CCCC3)cc1)C2=O (centres unmarked) [BUCMD00727]	>10	–	–	–
COc1ncc(N2C(=O)c3[nH]nc(CC(C)C)c3C2c2ccc(Cl)cc2F)cc1F (centres unmarked) [BUCMD00731]	>10	–	–	–
COc1ncc(N2C(=O)c3[nH]nc(CC(C)C)c3C2c2ccccc2Cl)cc1F (centres unmarked) [BUCMD00732]	1.9	–	–	–
COc1ncc(N2C(=O)c3[nH]nc(CC(C)C)c3C2c2ccccc2C)cc1F (centres unmarked) [BUCMD00733]	1.0	–	–	–
COc1ncc(N2C(=O)c3[nH]nc(CC(C)C)c3C2c2ccc(F)cc2F)cc1F (centres unmarked) [BUCMD00734]	1.5	–	–	–
C#CCCCCOc1ccc(N2C(=O)c3[nH]nc(CC(C)C)c3C2c2ccc(F)cc2)cn1 (centres unmarked) [BUCMD00739]	>10	–	–	–
COc1ccc(N2C(=O)c3[nH]nc(CC(C)C)c3C2c2c(Cl)cccc2Cl)cc1 (centres unmarked) [BUCMD00797]	–	2.5	1	–
CC(C)Cc1n[nH]c2c1C(c1ccccc1Br)N(CCN1CCCC1)C2=O (centres unmarked) [BUCMD00798]	–	> 50	31.6	–
CC(C)Cc1n[nH]c2c1C(c1ccccc1Cl)N(CCN1CCCC1)C2=O (centres unmarked) [BUCMD00799]	–	> 50	20	–
COc1ccc(N2C(=O)c3[nH]nc(CC(C)C)c3C2c2ccc(F)cc2C)cc1 (centres unmarked) [BUCMD00800]	–	25.1	0.5	–
COc1ccc(N2C(=O)c3[nH]nc(CC(C)C)c3C2c2ccnnc2)cc1 (centres unmarked) [BUCMD00801]	–	> 50	> 50	–
COc1ccc(N2C(=O)c3[nH]nc(CC(C)C)c3C2c2ccc(F)c(C(F)(F)F)c2)cc1 (centres unmarked) [BUCMD00802]	–	25.1	5	–
COc1cc(N2C(=O)c3[nH]nc(CC(C)C)c3C2c2cccc(C(F)(F)F)c2)cc(OC)c1OC (centres unmarked) [BUCMD00803]	–	12.6	5	–
CC(C)Cc1n[nH]c2c1C(c1cccc(C(F)(F)F)c1)N(c1ccc3ncnn3c1)C2=O (centres unmarked) [BUCMD00804]	–	≥ 50.1	7.9	–
CC(C)Cc1n[nH]c2c1C(c1ccc(F)cc1)N(c1cccc(C#N)c1)C2=O (centres unmarked) [BUCMD00806]	–	> 50	25.1	–
CC(C)Cc1n[nH]c2c1C(c1ccc(F)cc1)N(c1ccc(C#N)cc1)C2=O (centres unmarked) [BUCMD00807]	–	25.1	12.6	–
COc1ccc(N2C(=O)c3[nH]nc(CC(C)C)c3C2c2ccc(F)cc2)cn1 (centres unmarked) [BUCMD00808]	–	> 50	10	–
CCn1nc(CC(C)C)c2c1C(=O)N(c1ccc(OC)cc1)C2c1ccc(F)cc1 (centres unmarked) [BUCMD00809]	–	39.8	4	–
CCn1nc2c(c1CC(C)C)C(c1ccc(F)cc1)N(c1ccc(OC)cc1)C2=O (centres unmarked) [BUCMD00810]	–	> 50	20	–
COc1ccc(N2C(=O)c3[nH]nc(-c4ccc(OCc5ccccc5)cc4)c3C2c2ccc(F)cc2)cc1 (centres unmarked) [BUCMD00811]	–	15.8	10	–
COc1ccc(N2C(=O)c3[nH]nc(CC4CCCCC4)c3C2c2ccc(F)cc2)cc1 (centres unmarked) [BUCMD00812]	–	20	3.2	–
COCn1nc(CC(C)C)c2c1C(=O)N(c1ccc(OC)cc1)C2c1ccc(F)cc1 (centres unmarked) [BUCMD00813]	–	31.6	12.6	–
COCn1nc2c(c1CC(C)C)C(c1ccc(F)cc1)N(c1ccc(OC)cc1)C2=O (centres unmarked) [BUCMD00814]	–	> 50	12.6	–
CC(C)Cc1n[nH]c2c1C(c1ccc(F)cc1)N(c1ccc(-n3ccnc3)cc1)C2=O (centres unmarked) [BUCMD00815]	–	> 50	2.5	–
COc1ccc(N2C(=O)c3c(c(CC(C)C)nn3C)C2c2ccc(Br)cc2)cc1 (centres unmarked) [CMLD006598]	–	–	–	CC50 ([2]; host THP-1 cells): ≥ 50.1 µM
